Tested on: Genes belonging to other category
Experiment: DNA chip mRNA expression in yeast, genes belonging to other category (Table 9)
Type: cell-based, Saccharomyces cerevisiae S288C
Description: Yeast (Saccharomyces cerevisiae S288C (α SUC2mal mel gap2 CUP1)) were incubated at 25° C. on YPD medium (yeast extract 1%, polypepton 2%, glucose 2%). One of toxic chemical substances was added to the cells at logarithmic growth phase, and the cells were further incubated for two hours. Cells were cultured without any chemical substance in the same condition, and were used as control. Concentrations of the chemical substances were defined to inhibit the growth of the yeast but not lead to death.
After completion of the incubation, the culture was centrifuged to collect the cells. To the cells, sodium acetate buffer (50 mM sodium acetate, 10 mM EDTA, 1% SDS) was added, and the mixture was shaken at 65° C. for five minutes, followed by returning to room temperature, and obtaining the supernatant, of which the procedures were repeated two times. To the supernatant, ½ amount of a solution of phenol/chloroform was added, and the mixture was centrifuged to give a supernatant, which was added with an equal amount of chloroform, and the mixture was centrifuged to give a supernatant. To the supernatant, an equal amount of isopropanol containing 0.3 M sodium acetate was added, and the mixture was allowed to stand at room temperature for 30 minutes, after which the mixture was centrifuged to give a sediment of the whole RNAs. Seventy % ethanol was added to the sediment, and the mixture was again centrifuged to give a sediment, which was then dried and dissolved in water. mRNA was isolated from the whole RNAs as followings. In view of the fact that a poly A chain is attached to the 3′ terminus of mRNA, a polynucleotide having a poly T structure which was immobilized on the surface of latex beads was used to trap the mRNA, and then the mRNA was washed and eluted with spine column (Oligotex-dT30<Super>mRNA Purification Kit, Takara). Reverse transcription of the mRNA was conducted with a reverse transcriptase (Super Script II Reverse Transcriptase; catalogue No. 18064-014, GibcoBRL) using fluorescence-labeled nucleotides to give cDNAs that were introduced with Cy3-dUTP or Cy5-dUTP during the reverse transcription.
The labeled cDNAs were dissolved in TE buffer (10mM Tris-HCl/1 mM EDTA, pH8.0), and the solution was dropped on the DNA chip containing the whole genes of yeast (DNA Chip Research Inc. Japan) so that the cDNAs were hybridized on the DNA chip at 65° C. for over 12 hours. The fluoresces intensity of the DNA chip was read with a scanner, and the ratio relative to the fluorescence intensity resulting from the absence of chemical substance was estimated as the following, which is shown in Tables 1 to 9: […]

Measured: The level of expressed mRNA in the presence of chemical substance/The level of expressed mRNA in the absence of chemical substance

C[S+](C)[O-] [(15), dimethylsulfoxide]
0.8: yeast gene YCR004C | yeast gene YDR115W | yeast gene YFL028C | yeast gene YJR122W | yeast gene YLR090W | yeast gene YLR118C | yeast gene YLR251W | yeast gene YLR327C | yeast gene YNL007C | yeast gene YNR010W | yeast gene YOR165W | yeast gene YPL149W | yeast gene YPR073C
3.5: yeast gene YDR481C
3.6: yeast gene YCL027W
3.4: yeast gene YOR181W
1.0: yeast gene YEL066W | yeast gene YJL116C | yeast gene YKL041W | yeast gene YKL139W | yeast gene YNL333W | yeast gene YNR069C | yeast gene YOL164W | yeast gene YOR185C | yeast gene YPR103W
2.2: yeast gene YDR510W | yeast gene YER159C
0.5: yeast gene YJR099W
5.7: yeast gene YDR055W
0.2: yeast gene YGL229C
3.9: yeast gene YLR391W
2.9: yeast gene YDR259C
4.0: yeast gene YPL154C
2.8: yeast gene YCR088W | yeast gene YLR356W
0.9: yeast gene YBL005W-A | yeast gene YDR358W | yeast gene YLR093C | yeast gene YMR139W | yeast gene YNL214W | yeast gene YPL018W
2.7: yeast gene YLR120C | yeast gene YOL013C
1.8: yeast gene YAR010C | yeast gene YBL043W | yeast gene YJR029W | yeast gene YOR288C
1.4: yeast gene YBR109C | yeast gene YDL007W | yeast gene YDR104C | yeast gene YKL190W | yeast gene YKR014C | yeast gene YNL015W | yeast gene YOR117W
1.7: yeast gene YDL126C | yeast gene YMR051C | yeast gene YMR219W | yeast gene YMR275C
3.3: yeast gene YIL140W | yeast gene YMR276W
3.2: yeast gene YJR004C | yeast gene YOR355W
1.6: yeast gene YBR201W
3.8: yeast gene YOR198C
2.0: yeast gene YJR086W | yeast gene YMR226C | yeast gene YOR285W
1.3: yeast gene YBL041W | yeast gene YDL238C | yeast gene YGR257C | yeast gene YKL008C | yeast gene YLR362W | yeast gene YMR004W | yeast gene YOR124C | yeast gene YOR259C | yeast gene YOR261C | yeast gene YPL109C | yeast gene YPR108W
3.0: yeast gene YHR071W
3.1: yeast gene YDR085C | yeast gene YKL039W
2.3: yeast gene YGL158W | yeast gene YKL096W | yeast gene YLR178C
0.7: yeast gene YDL008W | yeast gene YER107C | yeast gene YNL006W
2.6: yeast gene YDR388W | yeast gene YDR432W | yeast gene YGR136W | yeast gene YJL073W | yeast gene YLR250W | yeast gene YPL089C
1.9: yeast gene YHR139C | yeast gene YOR157C
6.5: yeast gene YGR213C
1.5: yeast gene YDR315C | yeast gene YJL030W | yeast gene YOR132W
5.1: yeast gene YBR214W

Source: patent publication US8192962B2, “Processes for detecting toxic substances” (Daikin Industries, Ltd., priority 2001, dated 2012)
